Results from patent US9517232B2, “Compounds for treatment of alzheimer's disease” (Medi Synergics, LLC, priority 2013, dated 2016).
Where two headings read alike, the source gives them in different places.

What was measured:
M2 [1] = target: T1, M2 (Homo sapiens, UniProt P08172); settings: Data from Poster, CNS Summit (2013); cited from earlier work
T1 sequence (P08172 1-466): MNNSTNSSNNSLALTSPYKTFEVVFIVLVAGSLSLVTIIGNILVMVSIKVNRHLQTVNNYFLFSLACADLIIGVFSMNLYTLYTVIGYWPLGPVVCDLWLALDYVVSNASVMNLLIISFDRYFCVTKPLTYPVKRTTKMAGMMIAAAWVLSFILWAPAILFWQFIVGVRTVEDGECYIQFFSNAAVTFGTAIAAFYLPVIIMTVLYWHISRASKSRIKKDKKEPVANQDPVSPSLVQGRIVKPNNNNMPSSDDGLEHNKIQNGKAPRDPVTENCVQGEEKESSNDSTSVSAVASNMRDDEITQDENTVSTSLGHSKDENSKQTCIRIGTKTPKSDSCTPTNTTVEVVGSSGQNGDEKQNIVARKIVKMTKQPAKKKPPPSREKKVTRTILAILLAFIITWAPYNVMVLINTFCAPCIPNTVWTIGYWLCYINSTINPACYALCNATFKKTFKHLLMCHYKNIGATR

Sigma1 [2] = target: T2, Sigma1 (Homo sapiens, UniProt Q99720); settings: Data from Poster, CNS Summit (2013); cited from earlier work
M3 = M3 (Homo sapiens, UniProt P20309); settings: Data from Poster, CNS Summit (2013); cited from earlier work
M1 [3] = target: T3, M1 (Homo sapiens, UniProt P11229); settings: Data from Poster, CNS Summit (2013); cited from earlier work
T3 sequence (P11229 1-460): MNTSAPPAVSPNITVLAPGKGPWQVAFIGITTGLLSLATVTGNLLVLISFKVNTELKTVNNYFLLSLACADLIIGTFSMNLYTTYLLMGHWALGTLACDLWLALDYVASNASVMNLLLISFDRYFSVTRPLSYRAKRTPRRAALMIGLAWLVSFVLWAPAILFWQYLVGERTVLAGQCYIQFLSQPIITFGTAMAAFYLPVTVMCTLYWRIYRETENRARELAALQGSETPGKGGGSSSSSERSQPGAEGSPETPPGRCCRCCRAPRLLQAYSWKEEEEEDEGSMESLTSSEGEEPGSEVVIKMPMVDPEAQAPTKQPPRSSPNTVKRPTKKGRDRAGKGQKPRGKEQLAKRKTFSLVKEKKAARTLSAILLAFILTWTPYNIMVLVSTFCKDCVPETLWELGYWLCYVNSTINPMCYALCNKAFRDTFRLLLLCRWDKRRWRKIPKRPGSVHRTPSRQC

M4 = target: T4, M4 (Homo sapiens, UniProt P08173); settings: Data from Poster, CNS Summit (2013); cited from earlier work
T4 sequence (P08173 1-479): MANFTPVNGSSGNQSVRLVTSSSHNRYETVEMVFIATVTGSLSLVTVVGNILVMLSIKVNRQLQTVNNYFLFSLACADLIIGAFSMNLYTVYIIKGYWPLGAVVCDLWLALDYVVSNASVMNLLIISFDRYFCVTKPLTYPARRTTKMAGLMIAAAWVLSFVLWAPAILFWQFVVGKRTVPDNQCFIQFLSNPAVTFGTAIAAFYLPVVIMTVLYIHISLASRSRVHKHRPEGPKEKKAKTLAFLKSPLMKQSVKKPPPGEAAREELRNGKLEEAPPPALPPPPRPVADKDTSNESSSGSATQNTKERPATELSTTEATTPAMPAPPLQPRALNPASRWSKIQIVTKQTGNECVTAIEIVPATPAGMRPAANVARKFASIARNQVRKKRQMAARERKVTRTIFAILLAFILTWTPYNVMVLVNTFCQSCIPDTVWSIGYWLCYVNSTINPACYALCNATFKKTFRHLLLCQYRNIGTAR

M5 = target: T5, M5 (Homo sapiens, UniProt P08912); test: Muscarinic M5 receptor Ki determination (NIMH PDSP); format: binding
T5 sequence (P08912 1-532): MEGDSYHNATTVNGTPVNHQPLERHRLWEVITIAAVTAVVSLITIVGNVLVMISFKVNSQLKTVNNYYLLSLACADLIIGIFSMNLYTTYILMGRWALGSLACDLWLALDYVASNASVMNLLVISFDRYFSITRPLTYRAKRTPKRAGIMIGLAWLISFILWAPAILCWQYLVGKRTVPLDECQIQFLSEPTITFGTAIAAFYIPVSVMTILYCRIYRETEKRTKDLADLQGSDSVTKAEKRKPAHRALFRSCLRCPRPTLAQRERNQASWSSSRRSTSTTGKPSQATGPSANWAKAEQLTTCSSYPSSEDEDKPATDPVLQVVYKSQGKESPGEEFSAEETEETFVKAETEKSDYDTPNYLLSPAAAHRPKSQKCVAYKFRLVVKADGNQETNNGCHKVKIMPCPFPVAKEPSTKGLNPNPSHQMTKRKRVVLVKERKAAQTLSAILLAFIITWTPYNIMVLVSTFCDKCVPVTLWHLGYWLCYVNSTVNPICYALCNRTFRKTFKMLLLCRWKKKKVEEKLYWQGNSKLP
Description: (§1) The compounds from the above Examples were tested for Sigma-1 and muscarinic M1-M5) activities. Ki determinations were generously provided by the National Institute of Mental Health's Psychoactive Drug Screening Program (PDSP), Contract #HHSN-271-2013-00017-C (NIMH PDSP). The NIMH PDSP is directed by Bryan L. Roth M D, PhD at the University of North Carolina at Chapel Hill and Project Officer Jamie Driscoll at NIMH, Bethesda Md., USA. Procedures employed by the PDSP are described in the NIMH PDSP Assay Protocol Book, Version II and follow published literature protocols.

M1 [4] = target: T3, M1; test: Muscarinic M1 receptor Ki determination (NIMH PDSP); format: binding
Description: as §1

M2 [5] = target: T1, M2; test: Muscarinic M2 receptor Ki determination (NIMH PDSP); format: binding
Description: as §1

Sigma1 [6] = target: T2, Sigma1; test: Sigma-1 receptor Ki determination (NIMH PDSP); format: binding
Description: as §1

T2 sequence (Q99720 whole entry): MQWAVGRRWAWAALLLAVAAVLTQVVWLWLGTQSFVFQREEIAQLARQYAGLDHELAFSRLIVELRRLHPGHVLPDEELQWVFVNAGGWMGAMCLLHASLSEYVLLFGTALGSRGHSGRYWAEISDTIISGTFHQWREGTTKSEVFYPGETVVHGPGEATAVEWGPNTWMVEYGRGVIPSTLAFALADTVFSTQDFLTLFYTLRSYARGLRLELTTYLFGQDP
Chain of M3 (P20309 whole entry): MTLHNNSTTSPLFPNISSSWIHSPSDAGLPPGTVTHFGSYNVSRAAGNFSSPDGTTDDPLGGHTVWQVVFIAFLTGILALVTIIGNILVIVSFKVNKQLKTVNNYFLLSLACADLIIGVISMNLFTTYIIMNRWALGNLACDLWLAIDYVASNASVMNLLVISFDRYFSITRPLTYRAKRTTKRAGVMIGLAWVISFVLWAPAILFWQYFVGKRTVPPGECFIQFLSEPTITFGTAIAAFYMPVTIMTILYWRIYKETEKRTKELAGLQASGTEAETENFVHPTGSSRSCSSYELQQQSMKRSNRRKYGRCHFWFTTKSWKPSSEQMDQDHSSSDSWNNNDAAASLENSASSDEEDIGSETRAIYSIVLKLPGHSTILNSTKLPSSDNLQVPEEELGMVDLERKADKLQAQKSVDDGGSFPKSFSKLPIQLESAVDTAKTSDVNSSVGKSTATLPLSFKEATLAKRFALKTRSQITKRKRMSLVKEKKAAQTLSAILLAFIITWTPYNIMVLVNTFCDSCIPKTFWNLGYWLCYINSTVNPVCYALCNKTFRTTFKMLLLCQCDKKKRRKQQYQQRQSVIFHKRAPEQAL

CN(C)CC1CCOC1(c1ccccc1)c1ccccc1 (stereo not drawn) [ANAVEX 2-73]
Ki (M2 [1]): 3.97 µM
Ki (Sigma1 [2]): 0.86 µM
Ki (M3): 5.33 µM
Ki (M1 [3]): 3.32 µM
Ki (M4): 5.19 µM

CN(CCCC1(c2ccc(F)cc2)OCc2cc(C#N)ccc21)C1=NCCCC1 (stereo not drawn) [Example 3, 1-(4-fluorophenyl)-1-{3-[methyl(3,4,5,6-tetrahydropyridin-2-yl)amino]propyl}-1,3-dihydro-2-benzo-furan-5-carbonitrile]
Ki (M5): 1.16 µM
Ki (M1 [4]): 1.5 µM
Ki (M2 [5]): 2.57 µM
Ki (Sigma1 [6]): 0.23 µM
